Converted amounts (≈) assume the structure as drawn.
Assays:
HL-60 cells = experiment: viable HL-60 cell number after incubation; format: cell-based, human; details: sixth day
[1] = test system: cancer cells such as HL-60, MOLT-3, A-549, WI-38VA13, Hep G2, HCT 116, SW 480, WiDr, AGS and myeloma cells; experiment: cell growth suppressing, anticancer and apoptosis-inducing action to cancer cells; format: cell-based, human
[2] = test system: Streptococcus mutans (GS5); experiment: growth turbidity, microorganism (18); format: cell-based; details: 8 h, control 140
Source text: They were testing microorganism (13): Escherichia coli HB101 (ATCC 33694); testing microorganism (14): Salmonella typhimurium LT-2 (ATCC 27106); testing microorganism (15): Pseudomonas aeruginosa (IFO 3080); testing microorganism (16): Staphylococcus aureus 3A (NCTC 8319); testing microorganism (17): Bacillus subtilis (IFO 3034); and testing microorganism (18): Streptococcus mutans (GS5; stored at National Institute of Health).
The testing microorganisms were subjected to a seed culture overnight in an L-broth (1% tryptone, 0.5% yeast extract and […]; pH 7.0). The seed culture (5 μl) was inoculated to a medium to which 25-200 μg/ml of cyclopentenone was added to 5 ml of L-both and also to a medium to which nothing was added and a shake incubation was conducted at 37° C. to measure the growth. At the initiation of the incubation and also at eight hours thereafter, turbidity of the culture was measured using a Fuji Digital Turbidimeter (sold from Fuji Kogyo KK; manufactured by Akiyama Denki Seisakusho) under the condition that the adjusted scale was 82.3 and the growth of the tested microorganism was measured from the value (growth turbidity) obtained by deducting the turbidity at the initiation of incubation from that after eight hours. Incidentally, in the case of the testing microorganism (18), a brain heart infusion was used instead of L-broth.

[3] = test system: Lactobacillus fructivorans (JCM 1198); experiment: antibacterial activity to hiochi bacteria, microorganism B; format: cell-based; details: five days; for Growth Turbidity (OD600): control 2.03
Protocol: The testing microorganism was subjected to a stationary incubation for five days in an SI medium (Japan Brewery Association) containing 10% of ethanol to give a seed microorganism. The seed microorganism (0.1%) was added to 100 ml of 10% ethanol-containing SI medium to which the cyclopentenone was added in an amount of 0, 25, 50, 75 or 100 μg/ml (in terms of final concentration), then a stationary incubation was conducted for five days and the turbidity was measured. In measuring the turbidity, the value of OD600 was measured using an absorbance meter. A value of OD600 of the medium to which no testing microorganism was inoculated was deducted from the above value and this (growth turbidity) was used for the growth of the tested microorganism.
The tested microorganisms were as follows. Thus, Lactobacillus fructivorans (IFO 13118) (testing microorganism A), Lactobacillus fructivorans (JCM 1198) (testing microorganism B) and Lactobacillus homohiochii (IFO 13120) (testing microorganism C) as true hiochi bacteria while Lactobacillus rhamnosus (IFO 3532) (testing microorganism D) was used as hiochi lactobacteria.

[4] = test system: Vibrio parahaemolyticus 4387-61 and Vibrio parahaemolyticus T4144-1; experiment: antibacterial and bactericidal action to Vibrio; format: cell-based
Protocol: (1) Vibrio parahaemolyticus 4387-61 or Vibrio parahaemolyticus T4144-1 (both stored at National Institute of Hygienic Sciences) was inoculated to make 10^6 cells/ml to a trypto-soya bouillon medium (manufactured by Nissui) containing […], 3.13 or 1.56 μg/ml of the cyclopentenone and a stationary incubation was conducted at 37° C. for 24 hours.
The culture (50 μl) where no growth of the microorganism was noted was spread on 20 ml of a trypto-soya bouillon agar medium containing no cyclopentenone and incubation was conducted at 37° C. for 24 hours. The result was that, in any of the strains, no growth of microorganism was noted on the agar medium on which a fraction (to which 50 μg/ml or more cyclopentenone was added) was spread.

[5] = test system: Campylobacter jejuni A3309; experiment: antibacterial action to Campylobacter; format: cell-based; details: 37° C., 48 hours, read-out: concentration at which no growth of the microorganism was noted
Protocol: (2) Campylobacter jejuni A3309 (stored at the Institute of Hygienic Sciences) was inoculated to a brain heart infusion medium (manufactured by Difco) containing 2% of calf serum (manufactured by Dainippon Seiyaku) and subjected to a shake preincubation at 37° C. for 16 hours. The culture (50 μl) was spread on 20 ml of 0.5% NaCl-containing Muller-Hinton plate medium (manufactured by BBL) containing 800, 400, 200, 100, 50, 25, 12.5, 6.25, 3.13 or 1.56 μg/ml of cyclopentenone and subjected to a stationary incubation at 37° C. for 48 hours.

[6] = test system: Helicobacter pylori strains NCTC 11637 (ATCC 43504), 206 and 3401; experiment: MIC against Helicobacter pylori strains; format: cell-based; details: pH 6.0, 37° C., 3-4 days, all strains tested, read-out: MIC (90% or more inhibition)
Protocol: (4) As to Helicobacter pylori strains, a standard strain NCTC 11637 (ATCC 43504) and clinically isolated strains from human stomach (206 and 3401; both stored at Department of Bacteriology, Hyogo Medical College) were used. Each strain was subjected to a shake incubation at 37° C. under a slightly aerophilic condition using an Aneropack Campiro (manufactured by Mitsubishi Gas Chemical) in a Brucella Broth Medium (manufactured by BBL) containing 7% of horse serum (manufactured by Bio Whittaker). The microorganism in a logarithmic growth phase was diluted with a Brucella Broth and used for the test. A 24-well plate (manufacturedby Falcon) was used for the experiments. The cyclopentenone was charged at the rate of 0.1 ml (1,000 μg)/well, subjected to a two-step dilution using PBS and immobilized by adding 0.9 ml/well of a medium [a Brucella agar medium (pH 6.0) containing 7% of horse serum (manufactured by BBL)]. The Brucella agar medium was previously adjusted to pH 6.0 with HCl and was used for the experiments. Each microorganism was inoculated at the rate of about 10^4 /50 μl/well. […] The amount of a sample (μg/ml) showing 90% or more inhibition was defined as the MIC.

Meth A cells = experiment: anticancer action to solid cancer, Meth A; format: in vivo, female BALB/c mice; details: 5 mg/kg/day s.c., five days
Protocol: The cyclopentenone mentioned in Example 3-(1) was diluted with a physiological saline solution to certain concentrations and the following tests were conducted.

O=C1C=CC(O)C1O (centres unmarked) [the cyclopentenone, 4,5-dihydroxy-2-cyclopenten-1-one]
viable cells (HL-60 cells; 10 μg/ml): no viable cell was found
inhibition at 0.01 µg/mL (HL-60 cells; Homo sapiens, HL-60, 0.01 μg/ml, vs control, read-out: cell growth inhibition): ~40%
inhibition at 0.1 µg/mL (HL-60 cells; Homo sapiens, HL-60, 0.1 μg/ml, vs control, read-out: cell growth inhibition): ~55%
inhibition at 1 µg/mL (HL-60 cells; Homo sapiens, HL-60, 1 μg/ml, vs control, read-out: cell growth inhibition): ~90%
apoptosis-inducing action to cancer cells [1]: apoptosis-inducing action
cell growth suppressing action and anticancer action [1]: cell growth suppressing action and anticancer action
Growth Turbidity ([2]; 25 μg/ml): 133
Growth Turbidity ([2]; 50 μg/ml): 130
Growth Turbidity ([2]; 100 μg/ml): 34
Growth Turbidity ([2]; 200 μg/ml): 6
Growth Turbidity (OD600) ([3]; 25 μg/ml): 0.01
Growth Turbidity (OD600) ([3]; 50 μg/ml): 0
Growth Turbidity (OD600) ([3]; 75 μg/ml): 0
MIC ([3]; Fructilactobacillus fructivorans, JCM1198, 120 h, read-out: concentration completely inhibiting growth): 50 µg/mL (≈ 438 µM)
MIC ([4]; 37° C., 24 hours, both strains, read-out: concentration showing antibacterial action (no growth)): 12.5 µg/mL (≈ 110 µM)
MBC ([4]; 24 h, read-out: concentration showing bactericidal action): 50 µg/mL (≈ 438 µM)
MIC [5]: ≥ 12.5 µg/mL
MIC [6]: 32 µg/mL (≈ 280 µM)
Inhibiting Rate (Meth A cells): 100.0%
Tumor Weight (average ± SD) (Meth A cells; two weeks, n=8, control 1.41 ± 0.55): 0.00 ± 0.00 g
